Assay in all cases: microbe, parasite or virus in culture
Test [1] has as its system C. paraputrificum (ATCC 1620-23). Format: cell-based. The note with it: Clostridium paraputrificum, read-out: Minimum Inhibitory Concentrations.
Test [2] deals with C.botulinum (ATCC 19397). The class given is cell-based. The note with it: Clostridium botulinum.
In test [3] the test system is B.subtilis. Format: cell-based. The note with it: Bacillus subtilis, read-out: Minimum Inhibitory Concentrations.
In test [4] the test system is C.perfingens (ATCC 13124). Format: cell-based, Clostridium perfingens. The note with it: Clostridium, read-out: Minimum Inhibitory Concentrations.
Test [5] concerns C.perfingens (ATCC 1620-19). The class given is cell-based, Clostridium perfingens. The note with it: Clostridium, read-out: Minimum Inhibitory Concentrations.
[6] abbreviates: ATCC19397, pH 5, read-out: Minimum Inhibitory Concentrations.
Where [7] appears, read: ATCC19397, pH 7, read-out: Minimum Inhibitory Concentrations.

In brackets after ≈: the same amount, converted by molar mass. Where two headings read alike, the source gives them in different places.

As for `CCCCCC(=O)OCC(O)C(=O)O` (stereo not shown) [R=5, 3-O-hexanoylglyceric acid], the MIC in test [1] (ATCC1620, pH 5) was 10 µg/mL (≈ 49 µM); in test [1] (ATCC1620, pH 7) it was 1000 µg/mL (≈ 4900 µM); in test [2] (setting [6]) it was 10 µg/mL (≈ 49 µM); in test [2] (setting [7]), 100 µg/mL (≈ 490 µM); in test [3] (pH 5) it was 10 µg/mL (≈ 49 µM); in test [3] (pH 7), 10000 µg/mL (≈ 49000 µM). For the same molecule, the MIC stood at 100 µg/mL (≈ 490 µM) in test [4] (ATCC13124, pH 5); 1000 µg/mL (≈ 4900 µM) in test [4] (ATCC13124, pH 7); 10 µg/mL (≈ 49 µM) in test [5] (ATCC1620, pH 5); 1000 µg/mL (≈ 4900 µM) in test [5] (ATCC1620, pH 7).

For `CCCCCCCCCC(=O)OCC(O)C(=O)O` (stereo not shown) [R=9, 3-O-decanoylglyceric acid], the MIC in test [1] (ATCC1620, pH 5) came to 10 µg/mL (≈ 38.4 µM); in test [1] (ATCC1620, pH 7), 100 µg/mL (≈ 384 µM); in test [2] (setting [6]), 10 µg/mL (≈ 38.4 µM); in test [2] (setting [7]) it was 10 µg/mL (≈ 38.4 µM); in test [3] (pH 5) it was 10 µg/mL (≈ 38.4 µM); in test [3] (pH 7) it was 1000 µg/mL (≈ 3840 µM). Besides, the MIC was determined as 10 µg/mL (≈ 38.4 µM) in test [4] (ATCC13124, pH 5); 10 µg/mL (≈ 38.4 µM) in test [4] (ATCC13124, pH 7); 10 µg/mL (≈ 38.4 µM) in test [5] (ATCC1620, pH 5); 100 µg/mL (≈ 384 µM) in test [5] (ATCC1620, pH 7).

Consider `CCCCCCCCCCCCC(=O)OCC(O)C(=O)O` (stereo not shown) [R=12, 3-O-tridecanoylglyceric acid], for which the MIC came to 10 µg/mL (≈ 33.1 µM) in test [1] (ATCC1620, pH 5); 100 µg/mL (≈ 331 µM) in test [1] (ATCC1620, pH 7); 10 µg/mL (≈ 33.1 µM) in test [2] (setting [6]); 100 µg/mL (≈ 331 µM) in test [2] (setting [7]); 10 µg/mL (≈ 33.1 µM) in test [3] (pH 5); 1000 µg/mL (≈ 3310 µM) in test [3] (pH 7). Further, the MIC is 10 µg/mL (≈ 33.1 µM) in test [4] (ATCC13124, pH 5); 100 µg/mL (≈ 331 µM) in test [4] (ATCC13124, pH 7); 10 µg/mL (≈ 33.1 µM) in test [5] (ATCC1620, pH 5); 10 µg/mL (≈ 33.1 µM) in test [5] (ATCC1620, pH 7).

`CCCCCCCCCCCCCCCC(=O)OCC(O)C(=O)O` (stereo not shown) [R=15, 3-O-hexadecanoylglyceric acid]: the MIC in test [1] (ATCC1620, pH 5) was 10 µg/mL (≈ 29 µM); in test [1] (ATCC1620, pH 7), 1000 µg/mL (≈ 2900 µM); in test [2] (setting [6]), 100 µg/mL (≈ 290 µM); in test [2] (setting [7]), 1000 µg/mL (≈ 2900 µM); in test [3] (pH 5) it was over 10000 µg/mL; in test [3] (pH 7), 10000 µg/mL (≈ 29000 µM). The MIC in test [4] (ATCC13124, pH 5) is 10 µg/mL (≈ 29 µM); in test [4] (ATCC13124, pH 7), 1000 µg/mL (≈ 2900 µM); in test [5] (ATCC1620, pH 5), 100 µg/mL (≈ 290 µM); in test [5] (ATCC1620, pH 7), 100 µg/mL (≈ 290 µM).
